Source: patent US10189842B2 (Agency for Science, Technology and Research, priority 2013, dated 2019)
Where two headings read alike, the source gives them in different places.

Columns and labels:
AsPC-1 cells = assay: Soft agar assay, AsPC-1; assay type: cell-based; details: for IC50: Homo sapiens, ASPC1
Method: (§1) AsPC-1 cells were maintained in RPMI164 supplemented with 10% FBS, 2 mM L-glutamine and P/S (100 units/ml penicillin and 100 μg/ml streptomycin). HPAF-II cells were maintained in MEM (Eagles′) supplemented with 10% FBS, 2 mM L-glutamine and P/S (100 units/ml penicillin and 100 μg/ml streptomycin). CFPAC-1 cells were maintained in Iscove MEM supplemented with 10% FBS, 2 mM L-glutamine and P/S (100 units/ml penicillin and 100 μg/ml streptomycin).
(§2) 600 μl of 0.6% agar was added to 24-well plate to form the base layer. Then a middle layer of 0.36% agar (containing 5000 cells and serially diluted compound) was added on to the base layer. Finally 500 μl of fresh growth medium was added to the top of the middle layer. The plates were incubated at 37° C. with 5% carbon dioxide in a humidified incubator for 2 weeks. Formation of colonies was observed using a light microscope. When the colony size was larger than 500 μm, 70 μl MTT (5 mg/ml) was added to each well and the plates were incubated at 37° C. for at least 2 hours. Colonies were counted with GelCount® instrument. The colony counts were plotted against compound concentrations using the GraphPad Prism software. The software was also used to perform non-linear curve fitting and calculation of compound concentration that inhibited 50% colony formation.

MMTV-Wnt1 tumor = assay: MMTV-Wnt1 mouse model; assay type: in vivo; details: for % T/C / % TGI / NTRD / T/C / TRD: Day 14
Method: 8-10 weeks old Female BALBc mice were anesthetised with 150 mg/kg Ketamine+75 mg/kg Xylazine. Under aseptic conditions, skin near the 4th mammary fat pad was incised. Mammary fat pad was tweaked with forceps and tumor fragment ˜2 mm^3 was implanted. The incision was closed using a tissue adhesive. Animals were randomised into groups of eight and treated daily with the test compounds for 14 days. Tumors were measured in two dimensions using calipers, and volume was calculated using the formula: Tumor Volume (mm^3)=[…]. Maximum tumor volume limit was 2000 mm^3.

HEK293-STF3A cells = assay: STF3A assay (luciferase reporter); assay type: cell-based, Human; details: Homo sapiens, 24 h, 1 day of treatment
Method in brief: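 HEK293 cells carrying the STF reporter and expressing Wnt3A, seeded 2×10^4 per well overnight, then treated 1 day with compound at final 50 μM to 1.5 nM. Luciferase activity read by luminescence after Steady-Glo reagent, 10 min at room temperature.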

V5-tagged Wnt3a = assay: Wnt3A palmitoylation assay; assay type: cell-based; details: 100 nM compound, HeLa cells, FIG. 4
Description: Wnt3A Palmitoylation Assay:
The assay used to determine the inhibition of the palmitoylation of Wnts by compound was described by Yap et al, (Yap MC, Kostiuk MA, Martin DD, Perinpanayagam MA, Hak PG, Siddam A, Majjigapu JR, Rajaiah G, Keller BO, Prescher JA, Wu P, Bertozzi CR, Falck JR, Berthiaume LG. 2010. Rapid and selective detection of fatty acylated proteins using omega-alkynyl-fatty acids and click chemistry. J Lipid Res. 51(6):1566-1580) with some modification. 3×10^6 HeLa cells were seeded in 10 cm culture dish and incubated at 37° C. overnight. […] After six hours, the cells were washed with PBS and treated with 100 μM alkyne palmitate in medium with 5% BSA. 100 nM compound or DMSO was added and the cells were incubated overnight at 37° C. The cells were lyzed and 600 μg cell lysate was collected and incubated with anti-V5 antibody (Invitrogen) followed by the pull down of V5-Wnt3a with the addition of Protein A/G agarose beads (Thermo scientific). The pulled down lysates containing V5-Wnt3a was click-reacted with biotin-azide (Invitrogen). The biotin-labelled protein lysate was then separated on SDS-PAGE and transferred to a nitrocellulose membrane. The membrane was incubated with primary anti-V5 antibody, followed by secondary anti-mouse Dylight 680 (Thermo scientific) to detect V5-Wnt3a. […]

CFPAC-1 cells = assay: Soft agar assay, CFPAC-1; assay type: cell-based; details: for IC50: Homo sapiens
Method: as §1, §2

HPAF-II cells = assay: Soft agar assay, HPAF-II; assay type: cell-based; details: for IC50: Homo sapiens
Method: as §1, §2

mammalian PORCN = assay: PORCN-null HT1080 cells transfected with mammalian PORCN, WNT3A, STF reporter; assay type: cell-based; details: luciferase, FIG. 1
Method: PORCN-null HT1080 cells were transfected with mammalian or Xenopus PORCN expression plasmids, along with WNT3A, STF reporter and mCherry as transfection control. 6 hours after transfection, cells were treated with the compounds or DMSO as indicated, and the following day assayed for luciferase. Xenopus PORCN was resistant to the inhibitory effects of compounds.

## Cc1cc2n(n1)CCCN2C(=O)CCC(=O)Nc1ccc(-c2cccnc2)nn1 [Compound 51, 4-(2-methyl-6,7-dihydropyrazolo[1,5-a]pyrimidin-4(5H)-yl)-4-oxo-N-(6-(pyridin-3-yl)pyridazin-3-yl)butanamide]
AsPC-1 cells; AsPC-1
  Maximum inhibition: 76%
AsPC-1 cells; AsPC-1, Test 1, read-out: Test 1 IC50 (colony growth inhibitory concentration)
  IC50: 24 nM
AsPC-1 cells; AsPC-1, Test 2, read-out: Test 2 IC50 (colony growth inhibitory concentration)
  IC50: 10 nM
AsPC-1 cells; AsPC-1, mean of two independent experiments, read-out: Mean IC50 (colony growth inhibitory concentration)
  IC50: 17 nM
MMTV-Wnt1 tumor; 1 mg/Kg daily
  % T/C: 37.5%
  % TGI: 68%
  NTRD: 1/8
  T/C: 0.375
  TRD: 0/8
MMTV-Wnt1 tumor; 3 mg/Kg daily
  % T/C: 38.3%
  % TGI: 67%
  NTRD: 0/8
  T/C: 0.383
  TRD: 0/8
MMTV-Wnt1 tumor; 10 mg/Kg daily
  % T/C: 16.0%
  % TGI: 91%
  NTRD: 0/8
  T/C: 0.160
  TRD: 0/8
MMTV-Wnt1 tumor; treated mice, FIG. 2 and FIG. 3
  tumor growth: decreased tumor growth in all the treated mice
HEK293-STF3A cells
  IC50: < 100 nM
V5-tagged Wnt3a
  Palmitoylation of Wnt3a: inhibited
CFPAC-1 cells; CFPAC-1
  Maximum inhibition: 79%
CFPAC-1 cells; CFPAC-1, Test 1, read-out: Test 1 IC50 (colony growth inhibitory concentration)
  IC50: 58 nM
CFPAC-1 cells; CFPAC-1, Test 2, read-out: Test 2 IC50 (colony growth inhibitory concentration)
  IC50: 39 nM
CFPAC-1 cells; CFPAC-1, mean of two independent experiments, read-out: Mean IC50 (colony growth inhibitory concentration)
  IC50: 49 nM
HPAF-II cells
  Maximum inhibition: 97%
HPAF-II cells; Test 1, read-out: Test 1 IC50 (colony growth inhibitory concentration)
  IC50: 8 nM
HPAF-II cells; Test 2, read-out: Test 2 IC50 (colony growth inhibitory concentration)
  IC50: 10 nM
HPAF-II cells; mean of two independent experiments, read-out: Mean IC50 (colony growth inhibitory concentration)
  IC50: 9 nM
Mammalian PORCN
  inhibition of the activity of mammalian porcupine: inhibit the activity of mammalian porcupine
